From patent US7402697B2, “Antibacterial agents” (Idexx Laboratories Inc., priority 2004, dated 2008) come the findings set out here.

Each structure is given as a SMILES string. Values after ≈ are worked out from the molar mass of the structure shown. “Also recorded” adds a separate entry of the source.

The nature of series [1]: Serum concentration as a function of time after subcutaneous administration to dogs (HPLC). The class given is in vivo. The note with it: for clearance of each isomer, serum concentration as percent of CmaxR or CmaxS as a function of time: 40 mg/kg of A2 as equimolar mixture of (R) and (S) acylamido configuration; for clearance rate: compared with NUFLOR®. On the procedure:
The pharmaceutical composition was then administered to dogs at a dose of 40 mg/kg. Blood samples were taken from the dog at various time points and serum separated using standard methods well known to those skilled in the art. The serum was then analyzed using HPLC according to the following procedure: A C18 Sep-Pak Plus® cartridge (Sep-Pak) (commercially available from Waters of Milford, Mass.) was rinsed with 5 mL of methanol followed by 5 mL of water and loaded with 1 mL of serum. After loading, the Sep-Pak was washed with 2 mL of water, 2 mL of 15% aqueous acetonitrile, and 3 mL of hexane. The Sep-Pak was then eluted with 4 mL of acetonitrile and the eluant collected. The acetonitrile was evaporated using a stream of nitrogen to provide a residue and the resulting residue was reconstituted with 1 mL of 25% aqueous acetonitrile to provide an assay solution. 50 μL of the assay solution was then analyzed by HPCL using high pressure liquid chromatography equipped with a Beckman Coulter Ultraphere C-18 5 μM×4.6 mm×250 mm analytical column eluted at a flow of 1.2 mL/min. using a gradient of water and acetonitrile according to the following profile: [table] The HPLC system was interfaced to a UV detector operated at 223 nm. […] The pharmaceutical composition was then administered to dogs subcutaneously at a a dose of 40 mg/kg. Blood samples were taken from the dogs at various time points and the blood samples treated as described above. The serum was then analyzed using the HPLC procedure described above. […] The pharmaceutical composition was then administered to dogs subcutaneously at a a dose of 40 mg/kg. Blood samples were taken from the dogs at various time points and the blood samples treated as described above. The serum was then analyzed using the HPLC procedure described above. […] The maximum serum level was determined for each isomer (CmaxR and CmaxS, respectively).

A further series deals with E. faecalis. The experiment in a line: Minimum inhibitory concentration, disk diffusion susceptibility testing. The class given is cell-based. On the procedure:
(§1) The activity of a Fenicol Compound against a bacteria is determined using standard dilution tests. For example, the minimum inhibitory concentrations can be determined using the disk diffusion susceptibility testing method described in Clinical Microbiology Procedures Handbook, volume 1, edited by Henry D. Isenberg, American Society for Microbiology, 1992, section 5.1 or the well known method of Bauer et al. “Antibiotic Susceptibility Testing by a Standardized Single Disc Method,” Amer. J. Clin. Pathol., 45, p. 493-496.
(In general: A growth-free zone around the sample is the usual read-out of agar diffusion tests.)

A further series relates to E. coli. The description is as above. It is filed as cell-based. The note with it: for Minimum Inhibitory Concentration: E. coli. How it is done: as §1
For a further series, the system named is B. subtitis. The series is described as above. The class given is cell-based. How it is done:
as §1

In a further series the test system is S. pyogenes. The description is as above. It is filed as cell-based. On the procedure:
as §1

A further series deals with S. aureaus. Described as above. It is filed as cell-based. On the procedure: as §1
The next series deals with K. pneumoniae. Described as above. It is filed as cell-based. How it is done: as §1
Another series deals with B. bronchoseptica. The description is as above. It is filed as cell-based. How it is done:
as §1

For `C[C@H](C(=O)N[C@H](CF)[C@H](O)c1ccc(S(C)(=O)=O)cc1)C(F)(F)F` [A2 wherein the acylamido group is present in the (R) stereoc], the “clearance of each isomer, serum concentration as percent of CmaxR or CmaxS as a function of time” value in series [1] (40 mg/kg) was “decreases much more slowly”.

For the compound `CC(C(=O)NC(CF)C(O)c1ccc(S(C)(=O)=O)cc1)C(F)(F)F` (mixture of isomers) [A2], the “Minimum Inhibitory Concentration” value in the series on E. faecalis worked out at 5 µg/mL; in the series with E. coli, 7 µg/mL; in the series with B. subtitis, 5 µg/mL; with S. pyogenes, 5 µg/mL; in the series on S. aureaus it was 7 µg/mL. The compound further had a maximum serum concentration in series [1] (40 mg/kg) of roughly 5 µg/mL. In series [1] (40 mg/kg), the “serum concentration compared with NUFLOR®” value was “much higher serum concentration”. Further, the clearance rate result in series [1] (40 mg/kg) is recorded as “much slower than the clearance rate of NUFLOR®; also recorded: cleared more slowly than is NUFLOR®”.

In the case of `CC(F)C(=O)NC(CF)C(O)c1ccc(S(C)(=O)=O)cc1` (mixture of isomers) [E5 + I5 (Racemic Mixture)], the “Minimum Inhibitory Concentration” value in the series with K. pneumoniae was 5 µg/mL; with E. faecalis, 3 µg/mL; in the series on E. coli, 5 µg/mL; in the series on B. bronchoseptica it was greater than 10 µg/mL; in the series on B. subtitis, 1 µg/mL; in the series with S. pyogenes, 5 µg/mL. Moreover, in the series on S. aureaus, the “Minimum Inhibitory Concentration” value amounted to 5 µg/mL.

Turning to `CC(Cl)C(=O)NC(CF)C(O)c1ccc(S(C)(=O)=O)cc1` (mixture of isomers) [E2 + I2 (Racemic Mixture)], the “Minimum Inhibitory Concentration” value in the series with K. pneumoniae amounted to 5 µg/mL; in the series with E. coli, 3 µg/mL; in the series with B. bronchoseptica, 3 µg/mL; in the series with B. subtitis, 0.5 µg/mL; in the series on S. aureaus it was 2 µg/mL.

Consider `CS(=O)(=O)c1ccc([C@@H](O)[C@@H](CF)NC(=O)C(Cl)Cl)cc1` [Fluorfenicol, reference compound], for which the MIC in the series with K. pneumoniae (Klebsiella pneumoniae) turned out to be 3 µg/mL (≈ 8.37 µM); in the series with E. faecalis (Enterococcus faecalis) it was 3 µg/mL (≈ 8.37 µM); in the series on E. coli (Escherichia coli, read-out: Minimum Inhibitory Concentration), 1 µg/mL (≈ 2.79 µM); in the series on B. bronchoseptica, 1 µg/mL (≈ 2.79 µM); in the series on B. subtitis, 1 µg/mL (≈ 2.79 µM); with S. pyogenes (Streptococcus pyogenes), 1 µg/mL (≈ 2.79 µM). The same compound displayed an MIC in the series with S. aureaus of 1 µg/mL (≈ 2.79 µM). Further, the maximum serum concentration entry in series [1] (40 mg/kg) is recorded as “less than 0.8 μg/mL”.

As for `C[C@@H](C(=O)N[C@H](CF)[C@H](O)c1ccc(S(C)(=O)=O)cc1)C(F)(F)F`, in series [1], the “clearance of each isomer, serum concentration as percent of CmaxR or CmaxS as a function of time” value is listed as “decreases rapidly”.

Take `C[C@H](C(=O)N[C@H](CF)[C@H](O)c1ccc(S(C)(=O)=O)cc1)C(F)(F)F` [A2 wherein the acylamido group has the (R) stereochemical co]: the “clearance of each isomer, serum concentration as percent of CmaxR or CmaxS as a function of time” value in series [1] (40 mg/kg) is “cleared more slowly”.

Regarding `CC(C)C(=O)N[C@H](CF)[C@H](O)c1ccc(S(C)(=O)=O)cc1` [A1], the “Minimum Inhibitory Concentration” value amounted to 5 µg/mL in the series on E. coli, 2 µg/mL in the series on B. subtitis, 5 µg/mL with S. pyogenes and 3 µg/mL in the series with S. aureaus. Besides, the maximum serum concentration in series [1] (40 mg/kg) is roughly 7 µg/mL. Moreover, the “serum concentration compared with NUFLOR®” value in series [1] (40 mg/kg) was “higher serum concentration than NUFLOR®”. Besides, the clearance rate result in series [1] (40 mg/kg) is recorded as “cleared much more slowly; also recorded: cleared more slowly than NUFLOR®”.

In the case of `CS(=O)(=O)c1ccc([C@@H](O)[C@@H](CF)NC(=O)CCl)cc1` [D-threo-2-chloro-N-[1-(fluoromethyl)-2-hydroxy-2-[4-methylsulfonyl)phenyl]ethyl]-acetamide], the “Minimum Inhibitory Concentration” value with K. pneumoniae was found to be 5 µg/mL; in the series on E. coli it was 3 µg/mL; with B. bronchoseptica, 3 µg/mL; with B. subtitis, 0.5 µg/mL; in the series on S. aureaus it was 2 µg/mL.
